Test results from patent publication US20230000950A1, “COMPOSITION COMPRISING GLUCAGON AND GLP-1 AND GIP RECEPTOR DUAL AGONIST AND THERAPEUTIC USE OF SAME” (HANMI PHARM. CO., LTD., priority 2019, published 2023).

Legend:
[1] = target: T1, human GLP-1 receptor (Homo sapiens, UniProt P43220); experiment: cAMP activity of dual agonist in cell line expressing human GLP-1 receptor; format: cell-based; details: EC50 compared with native GLP-1, CHO DG44 cells
T1 construct: expressed in transfected cells; host or cells: CHO DG44
Text: (§1) and GIP A recombinant vector was constructed using the expression vector X0GC/dhfr so as to express human GLP-1 receptor and human GIP receptor, then transformed into CHO DG44 cells using lipofectamine, and selectively cultured in a selective medium containing G418 and methotrexate. From this, monoclonal cell lines were selected by limiting dilution. Among these, cell lines showing excellent concentration-dependent cAMP response to GLP-1 and GIP were finally selected.
(§2) In the cell lines expressing human GLP-1 receptor and human GIP receptor produced in Example 6, the activity of the dual agonist synthesized in Example 7 was measured.
(§3) Specifically, the transformed cell lines of Example 6 were subcultured 3 or 4 times a week, and then the subcultured cell lines were seeded in a 384-well plate by 6×10^3 per well and cultured for 24 hours. In HBSS (Hank's balanced salt solution) buffer containing 0.5 mM IBMX (3-isobutyl-1-methylxanthine), 0.1% BSA (bovine serum albumin), and 5 mM HEPES (4-(2-hydroxyethyl)-1-piperazineethanesulfonic acid), native GLP-1 and GIP were suspended at 200 nM and the dual agonist at 1600 nM, and then serially diluted 4-fold 10 times. This was applied to the cAMP assay kit (LANCE cAMP 384 kit, PerkinElmer) and added to each of the cultured cell lines, and then the fluorescence value was measured.

[2] = target: T2, human GIP receptor (Homo sapiens, UniProt P48546); experiment: cAMP activity of dual agonist in cell line expressing human GIP receptor; format: cell-based; details: EC50 compared with native GIP, CHO DG44 cells
T2 construct: expressed in transfected cells; host or cells: CHO DG44
T2 sequence (P48546 22-466): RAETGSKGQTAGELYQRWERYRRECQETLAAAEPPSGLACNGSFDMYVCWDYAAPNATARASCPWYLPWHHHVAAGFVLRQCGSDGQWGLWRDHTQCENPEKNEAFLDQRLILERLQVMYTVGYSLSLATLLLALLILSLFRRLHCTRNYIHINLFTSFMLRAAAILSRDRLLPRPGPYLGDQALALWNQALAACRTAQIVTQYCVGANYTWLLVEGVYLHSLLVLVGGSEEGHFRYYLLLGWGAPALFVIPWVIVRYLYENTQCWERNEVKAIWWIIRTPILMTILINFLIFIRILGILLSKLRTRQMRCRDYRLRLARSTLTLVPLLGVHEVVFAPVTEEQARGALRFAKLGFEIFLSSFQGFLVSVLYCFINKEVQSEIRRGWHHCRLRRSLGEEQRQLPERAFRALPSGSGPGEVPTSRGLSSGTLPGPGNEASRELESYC
Text: as §1, §2, §3

[3] = test system: high-fat diet-induced obese mouse; experiment: High-fat diet-induced obese mice: body weight, fat weight, blood lipids, HOMA-IR, energy metabolism-related gene expression; format: in vivo; details: 21 days, subcutaneous; long-acting glucagon derivative 2.0 nmol/kg once every two days, tirzepatide 20 nmol/kg once every two days, Saxenda 50 nmol/kg twice a day
Experimental: A high-fat diet-induced obese mouse, which was widely used as an obese animal model, was used for this study. The body weight of the mice was about 50 g to 55 g before administration. During the study period, seven mice were housed and had free access to water. The lights were turned off from 6 P.M. to 6 A.M.
The administration was performed by subcutaneous injection in all cases.
The experiment was terminated on the 21st day, the changes in body weight of the mice corresponding to each group were measured every two days during the experiment. After the experiment was terminated, the fat weight, blood lipid levels, HOMA-IR, and energy metabolism-related gene expression in tissues were measured.

[4] = test system: CD-HFD mouse model; experiment: CD-HFD (choline-deficient and high-fat, high-cholesterol diet) mouse model of NASH and fibrosis: NAS and liver collagen expression; format: in vivo; details: 6 weeks repeated administration Q2D subcutaneous, vs CD-HFD vehicle control
Text: In order to verify the efficacy on NASH and fibrosis improvement by combined administration of the long-acting glucagon derivative and GLP-1/GIP dual agonist (tirzepatide) according to the present invention prepared in Examples, a CD-HFD (choline-deficient and high-fat, high-cholesterol diet) mouse model was used.
Mice induced by 8-week CD-HFD were divided into a vehicle control group, a long-acting glucagon derivative (1.3 nmol/kg, Q2D, subcutaneous) administration group, a dual agonist (73 nmol/kg, Q2D, subcutaneous) administration group, and a long-acting glucagon derivative and dual agonist combined administration group, and repeated administration was performed for 6 weeks. As a negative control group, a group administered with a vehicle to normal diet mice was used. After 6 weeks of repeated administration, the liver tissue of each mouse was taken as an autopsy, and the efficacy on NASH and fibrosis improvement was evaluated by measuring NAS (NAFLD activity score) through H&E staining and collagen expression through quantitative PCR.
For the statistical processing in all the cases, the vehicle group (control group) and the test groups were compared using one-way ANOVA, and the t-test was used to compare the additional efficacy of the combined administration group with that of the single administration group (* to ** p<0.05 to 0.001 vs. vehicle control group).

[5] = target: human GLP-1 receptor (human, UniProt P43220 24-463); experiment: cell-based or functional assay
[6] = target: T3, human GIP receptor (human, UniProt P48546 22-466); experiment: cell-based or functional assay
T3 sequence (looked up): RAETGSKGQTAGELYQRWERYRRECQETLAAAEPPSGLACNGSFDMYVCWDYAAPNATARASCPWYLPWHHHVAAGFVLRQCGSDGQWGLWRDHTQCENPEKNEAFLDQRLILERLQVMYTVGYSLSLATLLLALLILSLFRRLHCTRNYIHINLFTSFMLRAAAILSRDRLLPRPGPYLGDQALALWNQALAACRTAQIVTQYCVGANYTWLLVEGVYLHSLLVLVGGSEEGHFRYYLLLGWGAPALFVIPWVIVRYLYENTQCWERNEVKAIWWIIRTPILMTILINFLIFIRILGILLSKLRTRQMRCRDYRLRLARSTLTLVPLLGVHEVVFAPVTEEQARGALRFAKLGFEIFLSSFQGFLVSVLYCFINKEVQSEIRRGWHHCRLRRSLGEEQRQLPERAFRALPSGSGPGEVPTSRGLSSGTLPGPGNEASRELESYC

T1 sequence (P43220 24-463): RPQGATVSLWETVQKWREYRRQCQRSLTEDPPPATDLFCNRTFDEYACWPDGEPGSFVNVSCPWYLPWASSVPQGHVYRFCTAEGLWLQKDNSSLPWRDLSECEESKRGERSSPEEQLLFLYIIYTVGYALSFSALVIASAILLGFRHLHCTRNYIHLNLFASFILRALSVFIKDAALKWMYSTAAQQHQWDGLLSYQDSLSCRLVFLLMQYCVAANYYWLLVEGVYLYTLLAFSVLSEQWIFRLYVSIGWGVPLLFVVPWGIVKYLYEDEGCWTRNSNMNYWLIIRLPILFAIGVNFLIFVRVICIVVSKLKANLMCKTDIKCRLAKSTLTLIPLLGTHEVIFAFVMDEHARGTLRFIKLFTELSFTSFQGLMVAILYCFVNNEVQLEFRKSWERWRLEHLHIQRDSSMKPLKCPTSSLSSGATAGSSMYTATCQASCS

## CC[C@H](C)[C@H](NC(=O)[C@H](CC(C)C)NC(=O)[C@H](Cc1c[nH]c2ccccc12)NC(=O)[C@H](CCC(N)=O)NC(=O)[C@@H](NC(=O)[C@H](Cc1ccccc1)NC(=O)[C@H](C)NC(=O)[C@H](CCCCNC(=O)COCCOCCNC(=O)COCCOCCNC(=O)CC[C@H](NC(=O)CCCCCCCCCCCCCCCCCCC(=O)O)C(=O)O)NC(=O)[C@H](CCC(N)=O)NC(=O)[C@H](C)NC(=O)[C@@H](NC(=O)[C@H](CCCCN)NC(=O)[C@H](CC(=O)O)NC(=O)[C@H](CC(C)C)NC(=O)C(C)(C)NC(=O)[C@@H](NC(=O)[C@H](CO)NC(=O)[C@H](Cc1ccc(O)cc1)NC(=O)[C@H](CC(=O)O)NC(=O)[C@H](CO)NC(=O)[C@@H](NC(=O)[C@H](Cc1ccccc1)NC(=O)[C@@H](NC(=O)CNC(=O)[C@H](CCC(=O)O)NC(=O)C(C)(C)NC(=O)[C@@H](N)Cc1ccc(O)cc1)[C@@H](C)O)[C@@H](C)O)[C@@H](C)CC)[C@@H](C)CC)C(C)C)C(=O)N[C@@H](C)C(=O)NCC(=O)NCC(=O)N1CCC[C@H]1C(=O)N[C@@H](CO)C(=O)N[C@@H](CO)C(=O)NCC(=O)N[C@@H](C)C(=O)N1CCC[C@H]1C(=O)N1CCC[C@H]1C(=O)N1CCC[C@H]1C(=O)N[C@@H](CO)C(N)=O [Dual agonist (tirzepatide)]
[1]
  Relative in vitro activity to native ligand (EC50), GLP-1 receptor: 1.3%
[2]
  Relative in vitro activity to native ligand (EC50), GIP receptor: 6.7%
[3]
  change in body weight compared to before administration: −19.39%
[4]; long-acting glucagon derivative 1.3 nmol/kg, dual agonist 73 nmol/kg, H&E staining
  NAS (NAFLD activity score): significantly reduced
[4]; quantitative PCR
  collagen expression in liver tissue: significantly reduced

B1: tirzepatide (peptide)
peptide: YXEGTFTSDYSIXLDKIAQKAFVQWLIAGGPSSGAPPPS
modifications: not fully specified; X at positions 2 and 13 = 2-methylalanine (Aib); Lys 20 N6-[(22S)-22,42-dicarboxy-10,19,24-trioxo-3,6,12,15-tetraoxa-9,18,23-triazadotetracontan-1-oyl]; C-terminal serinamide
[5]
  Relative in vitro activity to native ligand (EC50), cAMP assay: 1.3%
[6]
  Relative in vitro activity to native ligand (EC50), cAMP assay: 6.7%
